Where two headings read alike, the source gives them in different places.
Legend:
[1] = system: MCF-7, T47D, LNCaP, HepaRG, Caco-2 and NHDF cell lines; assay: MTT screening at 30 µM in six cell lines; assay type: cell-based; conditions: 72 h
Method: (§1) Each experiment was performed in quadruplicate and independently repeated.

LNCaP cells [2] = assay: MTT antiproliferative assay, LNCaP; assay type: cell-based; conditions: for IC50: Homo sapiens, prostate LNCaP cells, MTT assay, 0.1-100 µM, read-out: Estimated IC50, LNCaP; for Selectivity index, LNCaP: ratio of IC50 in NHDF to IC50 in LNCaP
Method: as §1

LNCaP cells [3] = assay: LNCaP cell viability by flow cytometry after propidium iodide staining; assay type: cell-based; conditions: 50 µM, 24 h, PI flow cytometry
Method: The analysis of LNCaP cells viability was performed by flow cytometry after staining with propidium iodide (PI) (solution of PI 1 mg/mL in 0.1% of sodium azide and water; Sigma Aldrich, St Louis, MO, USA). Briefly, 3 mL of cells suspension were seeded in 6-well plates (5 × 10^4 cells/mL) in complete culture medium. After 48 h they were treated with 50 µM of compound 11. Untreated cells were used as negative control and 5-FU (50 µM) was used as positive control. Each experiment was performed in duplicate and independently repeated. At the end of 24 h of incubation, the supernatant of each well was collected, cells were harvested by trypsinization and pooled with the supernatants. The resulting cell suspension was kept on ice, pelleted by centrifugation and resuspended in 400 µL of complete medium. Afterward, 395 µL of the cell suspension was transferred to a FACS tube and 5 µL of PI and 0.5 µL of ethylenediamine tetraacetic acid (EDTA, 0.123 M) were added. A minimum of 20,000 events was acquired using a BD Accuri C6 (San Jose, CA, USA) flow cytometer in the channels forward scatter (FSC), side scatter (SSC) and fluorescence channel-3 (FL3, for PI). Acquisition and analysis were performed with BD Accuri Software. […]

HepaRG cells = assay: MTT antiproliferative assay, HepaRG; assay type: cell-based; conditions: for IC50: Homo sapiens, liver HepaRG cells, 72 h, MTT assay, 0.1-100 µM, read-out: Estimated IC50, HepaRG; for Selectivity index, HepaRG: ratio of IC50 in NHDF to IC50 in HepaRG
Method: as §1

T47-D cells = assay: MTT antiproliferative assay, T47-D; assay type: cell-based; conditions: for IC50: Homo sapiens, T47D, breast T47-D cells, 72 h, MTT assay, 0.1-100 µM, read-out: Estimated IC50, T47-D; for Selectivity index, T47-D: ratio of IC50 in NHDF to IC50 in T47-D
Method: as §1

LNCaP cells [4] = assay: Fluorescence microscopy of LNCaP cells after Hoechst 33258 DNA staining; assay type: cell-based; conditions: 50 µM, 24 h
Method: Near-confluent LNCaP cells were seeded in a 6-well plate (5 × 10^4 cells/mL). After adherence and incubation for 24h with compound 11 (50 µM), the dye Hoechst 33,258 was added to the culture medium to achieve a final concentration of 1µg/mL. The cells were incubated for 15 min at 37 °C and were then photographed by means of a Nikon Eclipse microscope equipped with a fluorescence attachment containing the appropriate optical blocks and a QCapture CCD camera.

[5] = system: normal human dermal fibroblasts (NHDF); assay: MTT antiproliferative assay, NHDF; assay type: cell-based; conditions: normal fibroblast NHDF cells, 72 h, 0.1-100 µM, read-out: Estimated IC50, NHDF
Method: as §1

MCF-7 cells = assay: MTT antiproliferative assay, MCF-7; assay type: cell-based; conditions: for IC50: Homo sapiens, MCF7, breast MCF-7 cells, 72 h, MTT assay, 0.1-100 µM, read-out: Estimated IC50, MCF-7; for Selectivity index, MCF-7: ratio of IC50 in NHDF to IC50 in MCF-7
Method: as §1

LNCaP cells [6] = assay: Cell cycle distribution of LNCaP cells by flow cytometry; assay type: cell-based; conditions: 50 µM, 24 h
Method: After 24 h of treatment with compound 11 at 50 µM (6-well plates, 5 × 10^4 cells/mL), LNCaP cells were collected and washed with PBS and resuspended in 450 µL of a cold solution of 0.5% bovine serum albumin (BSA; Amresco, Solon, OH, USA) and 1 mM EDTA in PBS, followed by fixation with 70% EtOH and kept at −20 °C. Afterward, fixed cells were washed twice with PBS and resuspended in a solution of PI (50 µg/mL) prepared in 0.5% BSA and 1 mM EDTA in PBS and then incubated with Ribonuclease A from bovine pancreas at a final concentration of 0.5 µg/µL (solution in 50% glycerol, 10 mM Tris-HCl, pH 8; Sigma Aldrich, St Louis, MO, USA) for 15 min in the dark. For comparison, untreated cells were used as negative control and cells treated with 5-FU at 50 µM were used as positive control. Each experiment was performed in duplicate and independently repeated. A minimum of 10,000 events was acquired using BD Accuri Software and analysis was performed by Modfit software (Becton Dickinson, San Jose, CA, USA).

[7] = system: estrogen-sensitive breast cancer T47-D cells (ER+); assay: E-screening (estrogenicity) assay in T47-D cells; assay type: cell-based; conditions: 0.001 and 0.01 µM, vs. negative control, MTT readout
Method: After overnight incubation, the medium was replaced every 3 days with fresh phenol red free RPMI 1640 medium supplemented with 5% of dextran-coated charcoal-treated fetal calf serum (DCC-FCS) and containing compound 11 (0.1, 0.01 and 0.001 µM). […] Each experiment was performed in quadruplicate and independently repeated.

in vitro = conditions: human, Caco-2
Method: (§2) The antiproliferative effect of compounds was evaluated by the 3-(4,5-dimethylthiazol-2-yl)-2,5-diphenyltetrazolium bromide (MTT; Sigma-Aldrich, St Louis, MO, USA) assay in MCF-7, T47-D, LNCaP, HepaRG, Caco-2 and NHDF cells. After reaching near confluence, cells were trypsinized and counted with a hemocytometer by means of the trypan-blue exclusion of dead cells. Then, 100 µL of cell suspension (2 × 10^4 cells/mL) was seeded in 96-well culture plates and left to adhere and growth during 48 h. […] Afterward, MTT containing medium was removed and formazan crystals were dissolved in DMSO. Absorbance was measured at 570 nm using a microplate reader Bio-rad Xmark spectrophotometer. After background subtraction, cell proliferation values were expressed as percentage relatively to the absorbance determined in negative control cells. Untreated cells were used as the negative control and the clinical drug 5-fluorouracil (5-FU) was used as positive control. Each experiment was performed in quadruplicate and independently repeated.
(§3) Data were expressed as mean ± standard deviation (SD). t-Student test (two groups) and one-way ANOVA (three groups) were used followed by Bonferroni post hoc tests to determine statistically significant differences among the means.

Caco-2 cells = assay: cells; conditions: Homo sapiens, Caco-2, 72 h, read-out: Estimated IC50, Caco-2
Method: as §2, §3

[8] = system: estrogen-sensitive breast cancer T47-D cells (ER+); set-up: method as in doi:10.5802/crchim.17; conditions: previous study; cited from earlier work
HepaRG cell cycle = system: HepaRG cell cycle; set-up: method as in doi:10.5802/crchim.17; conditions: HepaRG cells; cited from earlier work
uterine growth = system: uterine growth; set-up: method as in PMID 10447965; conditions: ovariectomized rats; cited from earlier work
17β-HSD1 = conditions: at 10 μM; cited from earlier work

## C[C@]12CC[C@@H]3c4cc([N+](=O)[O-])c(O)c([N+](=O)[O-])c4CC[C@H]3[C@@H]1CCC2=NO [Compound 6, 17-hydroxyimino-2,4-dinitroestra-1,3,5(10)-trien-3-ol]
[1]
  Cytotoxic/antiproliferative effect in screening: low antiproliferative activity

## C[C@]12CC=C3c4ccc(O)cc4CCC3C1CCC2=NO (stereo partly drawn) [Compound 11, 17-hydroxyimino-3-hydroxyestra-1,3,5(10),9(11)-tetraen-3-ol]
LNCaP cells [2]; 72 h
  IC50: 3.59 µM
LNCaP cells [2]; LNCaP cells, 30 µM, 72 h, MTT
  Reduction of cell proliferation in screening: significant reduction of LNCaP cells proliferation
LNCaP cells [2]
  Selectivity index, LNCaP: 8.59
LNCaP cells [3]
  Reduction in cell viability: 11%
HepaRG cells
  IC50: 18.4 µM
  Selectivity index, HepaRG: 1.68
T47-D cells
  IC50: 43.5 µM
  Selectivity index, T47-D: 0.71
LNCaP cells [4]
  Nuclei morphology (Hoechst 33,258): condensed DNA, typical of prophase, and a small proportion of condensed and fragmented nuclei, typical of apoptosis
[5]
  IC50: 30.8 µM
MCF-7 cells
  IC50: 25.6 µM
  Selectivity index, MCF-7: 1.20
LNCaP cells [6]
  Effect on cell cycle distribution: induced a G2/M cell cycle arrest
[7]
  Proliferative/estrogenic effect on T47-D cells: stimulated the cell proliferation
In vitro
  selectivity ratio at 72 h: 1.27
Caco-2 cells
  IC50: 24.3 µM

## C[C@]12CC[C@@H]3c4cc([N+](=O)[O-])c(O)cc4CC[C@H]3[C@@H]1CCC2=NO [Compound 5, 17-hydroxyimino-2-nitroestra-1,3,5(10)-trien-3-ol]
HepaRG cells
  IC50: 12.3 µM
MCF-7 cells
  IC50: 16.8 µM
Caco-2 cells
  IC50: 18.5 µM

## C[C@]12CC[C@@H]3c4ccc(O)cc4CC[C@H]3[C@@H]1CC[C@@H]2O [Compound E2, 17β-estradiol, reference compound]
[7]
  Proliferative/estrogenic effect on T47-D cells: stimulated the cell proliferation

## C[C@]12CC=C3c4ccc(O)cc4CCC3C1CCC2=O (stereo partly drawn) [Compound 8, Δ^9,11-E1]
[8]
  Proliferative/estrogenic effect on T47-D cells: stimulated the proliferation of T47-D cells
HepaRG cell cycle
  Effect on cell cycle: induced an arrest at G0/G1

## C[C@]12CC[C@@H]3c4ccc(OS(N)(=O)=O)cc4CC[C@H]3[C@@H]1CCC2=O [EMATE, estrone sulfamate]
Uterine growth
  Stimulatory effect on the uterine growth: 0.11 g

## C[C@]12CC[C@@H]3c4cc(I)c(O)c(I)c4CC[C@H]3[C@@H]1CCC2=NO [Compound 10, 17-hydroxyimino-2,4-diiodooestra-1,3,5(10)-trien-3-ol]
HepaRG cells
  IC50: 28 µM

## CC12CCC3c4ccc(O)cc4CCC3C1CC(=NO)C2=O (stereo not drawn) [Compound 16-oxime]
17β-HSD1
  % inhibition of 17β-HSD1: 96%

## C[C@]12CCC3c4cc(Br)c(O)c(Br)c4CCC3C1CCC2=NO (stereo partly drawn) [Compound 12, 17-hydroxyimino-2,4-dibromo-3-hydroxyestra-1,3,5(10)-trien-3-ol]
HepaRG cells
  IC50: 21.9 µM

## C[C@]12CC[C@@H]3c4ccc(O)cc4CC[C@H]3[C@@H]1CCC2=O [Compound 1, estrone, reference compound]
HepaRG cells
  IC50: 29.5 µM
[5]
  IC50: 61.8 µM
MCF-7 cells
  IC50: 41.9 µM
Caco-2 cells
  IC50: 42.7 µM

## O=c1[nH]cc(F)c(=O)[nH]1 [Compound 5-FU, 5-fluorouracil, reference compound]
LNCaP cells [2]; 72 h
  IC50: 7.79 µM
LNCaP cells [2]
  Selectivity index, LNCaP: 0.46
LNCaP cells [3]
  Reduction in cell viability: 12%
HepaRG cells
  IC50: 1.78 µM
  Selectivity index, HepaRG: 2.03
T47-D cells
  IC50: 0.54 µM
  Selectivity index, T47-D: 6.69
[5]
  IC50: 3.61 µM
MCF-7 cells
  Selectivity index, MCF-7: 2.11
LNCaP cells [6]
  Effect on cell cycle distribution: not able to pass through to the S and G2/M phases
In vitro
  selectivity ratio at 72 h: 2.76
Caco-2 cells
  IC50: 1.31 µM

## C[C@]12CCC3c4ccc(OS(N)(=O)=O)cc4CCC3C1CC/C2=N\O (stereo partly drawn) [OMATE, estrone oxime sulfamate]
Uterine growth
  Stimulatory effect on the uterine growth: 0.15 g

## C[C@]12CC[C@@H]3c4ccc(O)cc4CC[C@H]3[C@@H]1CCC2=NO [Compound 2, 17-hydroxyiminoestra-1,3,5(10)-trien-3-ol]
HepaRG cells
  IC50: 16.9 µM
  Selectivity index, HepaRG: 2.59
T47-D cells
  IC50: 29.3 µM
  Selectivity index, T47-D: 1.50
[5]
  IC50: 43.9 µM
MCF-7 cells
  IC50: 26.7 µM
  Selectivity index, MCF-7: 1.65

From paper PMC8125528 (Molecules, 2021)
